{
  "source": "patent US9238807B2",
  "about": "“Peptide increasing fusiogenic capacity of a gamete” (UNIVERSITE PARIS 13, priority 2003, dated 2016)",
  "key": {"[1]": {"test_system": "human zona-free oocytes and spermatozoa", "type": "cell-based", "method": "(§1) Patients donated said oocytes for research purposes and signed a consent form approved by the Institutional Review Board of the Aulnay-sous-Bois hospital.\nThese oocytes aged 48 hours or matured in vitro were not or were no longer capable of producing an embryo. Moreover, the polyspermy blocking mechanism which ensures that the embryo will be diploid is located in the zona pellucida of the oocyte. By removing the zona pellucida of these oocytes, this protective mechanism is abolished, leading to nonviable polyspermic zygotes in the event of gamete fusion. Finally, as embryo development occurs inside the zona pellucida for the first six days, the absence of the latter precludes said development from taking place.\n(§2) To maintain the oocyte membrane as close as possible to its natural state, the inventors removed the zona pellucida mechanically with microsurgical scissors.\nSperm from fertile donors was collected after three days of abstinence and prepared as for IVF. […]\nFunctional tests of inhibition of fusion were carried out in conditions similar to those used for IVF, that is, in conditions sufficiently close to physiological conditions since they enable pregnancy and fetuses. […] The slides were analyzed under a Zeiss Axiophot microscope equipped with a camera connected to Imaging System Package image analysis software (Applied Imaging, Newcastle-upon-Tyne, UK). […]"}, "human oocyte membrane": {"test_system": "human oocyte membrane", "test": "Detection of biotinylated FEEc peptide at the surface of human oocytes (immunofluorescence, confocal microscopy)", "type": "binding", "settings": "200 μM biotinylated peptide, 45 minutes, FIG. 1", "method": "as §1, §2\nThe oocytes were incubated with 200 μM biotinylated FEEc peptide for 45 minutes.\nThe zona pellucida was mechanically removed from the oocytes which were then incubated for 45 minutes with […] biotinylated peptide. The FEEc peptide was detected with a mouse anti-biotin antibody recognized by a biotinylated anti-mouse immunoglobulin antibody then by streptavidin-FITC. The oocytes were then mounted in immunomount between the coverslip and the slide and examined under a confocal microscope, B: superimposition of sections corresponding to a hemi-oocyte."}},
  "note": "Positions of bridges follow the written chain, without caps; N, C: chain ends. Residues, ends and D or L forms follow the SMILES beside them. No end group written: not given here.",
  "data": [
    {"molecule": "N[C@H]1CSSC[C@@H](C(=O)O)NC(=O)[C@H](CCC(=O)O)NC(=O)[C@H](CCC(=O)O)NC(=O)[C@H](Cc2ccccc2)NC(=O)[C@H](CO)NC1=O", "note": "[FEEc, CSFEEC] (H-CSFEEC-OH; disulfide 1-6)", "values": [
      {"measurement": "toxic effect on oocytes", "setting": "[1]", "result": "no toxic effect on oocytes"}
    ]},
    {"molecule": "biotinylated FEEc: FEEc cyclic peptide labelled with biotin for detection on oocytes (CSFEEC; disulfide 1-6 (inferred); also: biotinylated (position not given here))", "values": [
      {"measurement": "labelling of the oocyte membrane with the peptide", "setting": "human oocyte membrane", "result": "labelling of the membrane"}
    ]}
  ]
}
